Test results: patent US9610359B2, “Methods and compositions related to annexin 1-binding compounds” (Burnham Institute for Medical Research, priority 2009, dated 2017)
“Also recorded” adds a separate entry of the source. Residues, ends and D or L forms follow the SMILES beside them. No end group written: not given here.

Tests used:
[1] = test system: Human breast cancer MDA-MB-231 tumors; test: orthotopic MDA-MB-231 breast cancer model in SCID mice; format: in vivo; details: MDA-MB-231 breast tumor, 0.13 μmoles iv
Protocol: (§1) FIGS. 6A and 6B show the effect of IF7-GA on melanoma, lung carcinoma, prostate cancer, and breast cancer mouse models. A, Effect of IF7-GA on tumor size. […] Mice were euthanised on day 15 to measure tumor weight. […] Mice were euthanised on day 13 and tumors weighed. (c) Human prostate cancer PC3 tumors were grown orthotopically in the prostate of SCID mice. On day 7, each mouse was injected intravenously with the compounds as in A-a, and injections administered every 4 days, for a total of four injections, until day 22. Mice were euthanised on day 28 and tumors weighed. (d) Human breast cancer MDA-MB-231 tumors were grown orthotopically in fat pads of SCID mice. On day 7, each mouse was injected intravenously with the compounds as in A-a, and injections performed every 4 days, for a total of four injections, until day 22. […] B, Histochemistry of tumors from the mice intravenously injected with the compounds described in A. Apoptotic tumor cells along blood vessels in transplanted tumors are detected by TUNEL assay. […]
(§2) Mouse melanoma B16F1 cells (2×10^5 cells/100 μl serum-free DMEM) were injected subcutaneously into the dorsal flank of C57BL/6 female mice (8-10 weeks old). […] On day 15, mice were sacrificed and tumor weights determined. […] On day 13, mice were sacrificed and tumor weights determined. […] On day 28, mice were sacrificed and prostate tumor weights determined. […]

[2] = test system: Mouse Lewis lung carcinoma (LLC) tumors; test: subcutaneous Lewis lung carcinoma tumor model; format: in vivo; details: 0.13 μmoles iv
Protocol: as §1, §2

[3] = test system: Human prostate cancer PC3 tumors; test: orthotopic PC3 prostate cancer model in SCID mice; format: in vivo; details: 0.13 μmoles iv
Protocol: as §1, §2

[4] = test system: Mouse melanoma B16F1 tumors; format: in vivo; details: B16 melanoma, 0.13 μmoles iv
Protocol: (a) Mouse melanoma B16F1 tumors were grown subcutaneously in C57BL6 mice. On day 10, each mouse was injected intravenously with either 100 μl of 5% glucose or that containing 0.13 μmoles of each IF7, GA, or IF7-GA. Injections were administered every other day, for a total of three injections, until day 14. […] B, Histochemistry of tumors from the mice intravenously injected with the compounds described in A. Apoptotic tumor cells along blood vessels in transplanted tumors are detected by TUNEL assay. B16 melanoma (a), LLC lung carcinoma (b), PC3 prostate tumor (c) and MDA-MB-231 breast tumor (d) from mice treated with each compound.
Injections were administered every other day, for a total of 7 injections, until day 26, as shown by arrows.

Anxa1-His protein = biological target: T1, Anxa1-His protein (Homo sapiens, UniProt P04083); test: isothermal titration calorimetry (ITC) with Anxa1-His protein; format: binding; details: 23° C., 20 mM Tris pH 7.9, 250 mM NaCl, 1 mM CaCl2, 10% dimethylsulfoxide; average n=4, two Anxa1-His preparations
T1 construct: Full-length cDNA encoding Anxa1 was obtained from Invitrogen (Carlsbad, Calif.) and subcloned into pET29a vector; His6 (C); made in house; host or cells: bacteria (pET29a vector, Novagen)
T1 sequence (P04083 1-346): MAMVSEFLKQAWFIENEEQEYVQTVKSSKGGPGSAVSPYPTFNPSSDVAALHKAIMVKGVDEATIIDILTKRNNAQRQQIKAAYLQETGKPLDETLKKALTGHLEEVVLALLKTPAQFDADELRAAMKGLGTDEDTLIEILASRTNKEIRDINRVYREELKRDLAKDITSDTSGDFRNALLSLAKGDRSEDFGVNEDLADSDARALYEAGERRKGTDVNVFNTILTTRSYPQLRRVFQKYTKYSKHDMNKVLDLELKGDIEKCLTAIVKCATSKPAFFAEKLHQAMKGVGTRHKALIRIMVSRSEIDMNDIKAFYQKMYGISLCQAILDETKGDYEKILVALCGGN
Protocol: ITC was performed on a VP-ITC calorimeter from Microcal (Northampton, Mass.). In this analysis IF7K3C peptide or […] (SEQ ID NO:12), in which IF7 was modified by inserted with three lysine residues between IF7 and C to increase solubility in water. Eight μl aliquots of solution containing 1.0 or 1.5 mM were injected into the cell containing 100 or 150 μM Anxa1-His protein. In each experiment 37 injections were made. The experiments were performed at 23° C. in buffer containing 20 mM Tris pH 7.9, 250 mM NaCl, 1 mM CaCl2 and 10% dimethylsulfoxide. Experimental data were analyzed using Microcal Origin software provided by the ITC manufacturer (Microcal, Northampton, Mass.).

[5] = fluorescence remaining in circulation after intravenous injection; format: in vivo, mouse
Protocol: (A) Lewis lung carcinoma (LLC) tumors were allowed to vascularize for 3 days in dorsal skinfold chamber window in nude mice. Mice were injected with 100 μl of 50 μM IF7-A488 (row a) or RQ7-A488 (row b) in 5% glucose in water. IF7-A488 was also injected to tumor-bearing mice pre-injected with rabbit IgG (row c) or with rabbit anti-Anxa1 antibody (row d). Fluorescence signals were monitored under a fluorescence microscope up to 40 min post-injection. From left: bright field before injection, and fluorescence at 0, 5, 20 min after injection. Far right, the boundary of tumor and stroma at 20 min (Scale bar=500 μm). (B) Quantitative analysis of fluorescence during the course of the analysis shown in A. The line with the highest signal at 10 minutes represents IF&-A488. The line with the second highest signal at 10 minutes represents the control IgG. The line with the third highest signal at 10 minutes represents Anxa-1 antibody. The line with the lowest signal at 10 minutes represents RQ7-A488. Intensity of fluorescence was determined by Image J program. […] (C) Fluorescence micrographs of tumor sections 20 min after injection with IF7-A488 and RQ7-A488. […] Arrows indicate fluorescence. (D) Fluorescence remained in circulation in mice with or without subcutaneous B16 tumors. IF7-A488 was injected intravenously through the tail vein, and fluorescence remaining in circulation was measured. […]

Anxa1-His6 protein [6] = biological target: T2, Anxa1-His6 protein (Homo sapiens, UniProt P04083); test: in vitro plate assay for binding to recombinant Anxa1-His6 protein; details: 4 μg/ml, Tris-HCl pH7.4, 1 mM CaCl2, 0.05% Tween 20
T2 construct: Full-length cDNA encoding Anxa1 was obtained from Invitrogen (Carlsbad, Calif.) and subcloned into pET29a vector; His6 (C); made in house; host or cells: bacteria (pET29a vector, Novagen)
T2 sequence (P04083 1-346): T1 sequence (P04083 1-346)
From the text: (§3) FIGS. 1A-1H show the essential role of annexin 1 (Anxa1) in tumor growth and identification of a peptide sequence with tumor vasculature targeting activity in vivo. A and B. Growth of B16 tumors subcutaneously injected into Anxa1(+/−) and Anxa1(−/−) mutant mice. C. Histology of B16 tumors produced in Anxa1(+/−) and Anxa1(−/−) mice. Each scale bar represents 2.00 mm. D. Immunohistochemistry of B16 tumors for CD31 showing endothelial cells and vasculature. Each scale bar represents 200 μm. E. In vivo phage targeting in B16 tumor-bearing mice. Numbers of transformed colonies recovered from the tumor or lung were determined. […] F. In vivo tumor and organ targeting activity of IFLLWQR (SEQ ID NO:2) displaying phage. Phage was injected into B16 tumor bearing mice pre-injected with anti-Anxa1 antibody or with control rabbit IgG. G. In vitro plate assay for binding of IF7-A488 (upper line) and control RQ7-A488C (lower line) to recombinant […] protein produced by bacteria. H. Effect of IF7 (upper line) and control RQ7 (lower line) on binding of FITC-labeled polyacrylamide-LeA oligosaccharide to Anxa1-His6 protein.
(§4) Full-length cDNA encoding Anxa1 was obtained from Invitrogen (Carlsbad, Calif.) and subcloned into pET29a vector (Novagen) to produce an […] fusion protein. […] After washing the plate, fluorescence was measured by a Molecular Devices Analyst HT plate reader. […]

[7] = test system: Lewis lung carcinoma (LLC) tumors; test: in vivo imaging of tumor targeting in dorsal skinfold chamber; parameters: species or system mouse; details: for vascular staining in tumor tissue sections: 20 min after injection
Protocol: (A) Lewis lung carcinoma (LLC) tumors were allowed to vascularize for 3 days in dorsal skinfold chamber window in nude mice. Mice were injected with 100 μl of 50 μM IF7-A488 (row a) or RQ7-A488 (row b) in 5% glucose in water. IF7-A488 was also injected to tumor-bearing mice pre-injected with rabbit IgG (row c) or with rabbit anti-Anxa1 antibody (row d). Fluorescence signals were monitored under a fluorescence microscope up to 40 min post-injection. From left: bright field before injection, and fluorescence at 0, 5, 20 min after injection. Far right, the boundary of tumor and stroma at 20 min (Scale bar=500 μm). (B) Quantitative analysis of fluorescence during the course of the analysis shown in A. The line with the highest signal at 10 minutes represents IF&-A488. The line with the second highest signal at 10 minutes represents the control IgG. The line with the third highest signal at 10 minutes represents Anxa-1 antibody. The line with the lowest signal at 10 minutes represents RQ7-A488. Intensity of fluorescence was determined by Image J program. Error bars represent SD (n=3). Asterisks show statistical significance or p<0.0001, t test. (C) Fluorescence micrographs of tumor sections 20 min after injection with IF7-A488 and RQ7-A488. From left: IF7-A488, DAPI, merged, and bright field. […] Experiments were repeated 3 times, and representative results are shown. Arrows indicate fluorescence. (D) Fluorescence remained in circulation in mice with or without subcutaneous B16 tumors. IF7-A488 was injected intravenously through the tail vein, and fluorescence remaining in circulation was measured. Upper line represents “without tumor”, middle line represents “with 3 days tumor”, and bottom line represents “with 6 days tumor.” Error bars represent SD (n=3).
A Lewis lung carcinoma (LLC) tumor was produced in a donor nude mouse by subcutaneous injection, and small piece of tumor (less than 1 mm^3) was transplanted to a dorsal skinfold chamber in a recipient nude mouse (8-10 weeks female Balb/c nude) as described (Lehr et al., Am J Pathol 1993; 143:1055-62; Oh et al., Nat Biotechnol 2007; 25:327-37). Three days later, the mouse was anesthetized by peritoneal injection of 1.25% 2,2,2-Tribromoethanol ([…]). IF7-A488 or RQ7-A488 (100 μl; […] in 5% glucose solution) was injected through the tail vein. Intravital Alexa 488 signals in the tumor were detected and recorded by a Zeiss Axioplan fluorescence microscope and a digital camera system (DP70 and DP controller, Olympus). For inhibition assays, rabbit anti-Anxa1 antibody (H-65, Santa Cruz) or rabbit IgG (20 μg IgG) was injected 15 minutes prior to IF7-A488 injection. Signal intensity in the tumor from 0 min to 40 min was measured by Image J (NIH, Maryland). After 10 min, irradiation of specimens by a UV lamp was limited only to times when photos were taken to avoid fluorescence bleaching. The tumor was isolated from the dorsal skin folder chamber, fixed with 4% paraformaldehyde at room temperature for 15 min, immersed in O.C.T compound, and cryosections were made. Frozen sections were overlaid with Vectashield containing DAPI (Vector laboratories) and examined under a Zeiss Axioplan fluorescence microscope.

[8] = body weights, blood cell counts and blood chemistry of treated nude mice; format: in vivo, mouse; details: daily injection for 10 days, versus no drug injection
From the text: FIGS. 15A, 15B and 15C show body weights (A), blood cell counts (B), and blood chemistry (C) of the nude mice treated with IF7C(RR)-SN38 and RQ7C(RR)-SN38 daily injection for 10 days.

Anxa1-His6 protein [9] = biological target: T2, Anxa1-His6 protein; test: inhibition of binding of FITC-labeled polyacrylamide-LeA oligosaccharide to Anxa1-His6
From the text: as §3, §4

[10] = 100 μl of 50 μM, tail vein, nude mice

## CO[C@H]1/C=C\C=C(/C)C(=O)NC2=CC(=O)C(NCCCNC(=O)CCCN3C(=O)C=CC3=O)=C(C[C@@H](C)C[C@H](OC)[C@H](O)[C@@H](C)/C=C(\C)[C@@H]1OC(N)=O)C2=O [GA, 17-GMB-APA-GA, reference compound]
[1]
  apoptosis of perivascular tumor cells (TUNEL): rarely show apoptosis
[2]
  apoptosis of perivascular tumor cells (TUNEL): rarely show apoptosis
[3]
  apoptosis of perivascular tumor cells (TUNEL): rarely show apoptosis
[4]
  apoptosis of perivascular tumor cells (TUNEL, histochemistry): rarely show apoptosis

## CC[C@H](C)[C@H](N)C(=O)N[C@@H](Cc1ccccc1)C(=O)N[C@@H](CC(C)C)C(=O)N[C@@H](CC(C)C)C(=O)N[C@@H](Cc1c[nH]c2ccccc12)C(=O)N[C@@H](CCC(N)=O)C(=O)N[C@@H](CCCNC(=N)N)C(=O)N[C@@H](CCCCN)C(=O)N[C@@H](CCCCN)C(=O)N[C@@H](CCCCN)C(=O)N[C@@H](CS)C(=O)O [IF7K3C] (H-IFLLWQRKKKC-OH; N-terminus and C-terminus assumed)
Anxa1-His protein
  Kd: 11 ± 6 µM

## IF7-A488 (IFLLWQRC)
[5]; control mice without tumors
  fluorescence remaining in circulation, mice without tumors: remained in circulation after an initial surge
[5]; subcutaneous B16 tumors
  fluorescence remaining in circulation, B16-tumor-bearing mice: complete disappearance from the circulation
Anxa1-His6 protein [6]
  binding to recombinant Anxa1-His6 protein in plate assay: binds to recombinant Anxa1-His6 protein
[7]; [10]
  time until fluorescence signals appeared in the tumor: within one minute
  time until tumor fluorescence reached a plateau: 9 min
[7]
  vascular staining in tumor tissue sections: vascular staining by IF7-A488; also recorded: detected on endothelial cells of tumor vasculature
[7]; IgG 15 minutes prior
  tumor targeting after prior injection of irrelevant rabbit IgG: did not inhibit IF7-A488 tumor targeting
[7]; antibody 15 minutes prior
  tumor fluorescence signals after prior injection of anti-Anxa1 antibody: significantly reduced
[7]; or until the experiment was terminated
  time tumor fluorescence remained high: 40 min

## RQ7-A488 (RQWLLFI; also: Alexa 488 conjugate, site not given here) [reference compound]
Anxa1-His6 protein [6]
  binding to recombinant Anxa1-His6 protein in plate assay: did not bind to Anxa1
[7]; [10]
  tumor fluorescence signals: either not detectable or remained at background levels
[7]
  vascular staining in tumor tissue sections: not RQ7-A488; also recorded: no RQ7-A488 signal was detected

## RQ7C(RR)-SN38 (RQWLLFICRR; also: SN-38 conjugate, site not given here)
[8]
  blood cell counts: None of the parameters showed significant differences to the control
  blood chemistry: None of the parameters showed significant differences to the control
  body weights: None of the parameters showed significant differences to the control

## RQWLLFI (control peptide) [RQ7, reference compound]
Anxa1-His6 protein [9]
  inhibition of fucosylated carbohydrate (LeA) binding to Anxa1: not by RQ7
